Patent publication US20110098296A1, “Thiazole And Oxazole Kinase Inhibitors” (priority 2007, published 2011)

Legend:
[1] = target: T1, ErbB2 (Homo sapiens, UniProt P04626); experiment: ErbB-2 substrate phosphorylation assay (HTRF); assay type: biochemical; details: Method (A): Enzyme Mix incubated with compound at 20° C. for 1 hr, reaction started by adding Substrate Mix
T1 construct: made in house; host or cells: baculovirus expression system
Outline: (§1)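 Baculovirus-expressed kinase (0.8 nM EGFR or 10 nM ErbB2 in enzyme mix) with Peptide C 0.8 μM and ATP 20 μM (substrate-mix levels), MOPS pH 7.5, MnCl2; 90 min, 20 °C, HTRF anti-phosphotyrosine. Method A adds 1 h enzyme–compound preincubation; B none. pIC50, final compound 0.00027–47.6 μM.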

[2] = target: T2, EGFR (Homo sapiens, UniProt P00533); experiment: EGFR substrate phosphorylation assay (HTRF); assay type: biochemical; details: Method (A): Enzyme Mix incubated with compound at 20° C. for 1 hr, reaction started by adding Substrate Mix
T2 construct: made in house; host or cells: baculovirus expression system
Outline: as §1

[3] = tested on: A375P F11s tumor cells; experiment: Method C: Cell Growth Inhibition Assay (CellTiter-Glo), A375P F11s; assay type: cell-based; details: Homo sapiens, 72 h, 3 days, 4-parameter fit
Outline: (§2)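 500 cells/well; next-day compound, 1:3 serial dilutions, 0.2% DMSO final; 3 d, 37° C, 5% CO2. Readout: CellTiter-Glo luminescence (total ATP as cell-number surrogate). IC50 from 4-parameter fit of % growth inhibition vs vehicle.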

[4] = tested on: SK-MEL-3 tumor cells; experiment: Method C: Cell Growth Inhibition Assay (CellTiter-Glo), SK-MEL-3; assay type: cell-based; details: Homo sapiens, SK-MEL3, 72 h, 3 days, 4-parameter fit
Outline: as §2

[5] = tested on: BT474 tumor cells; experiment: Method C: Cell Growth Inhibition Assay (CellTiter-Glo), BT474; assay type: cell-based; details: Homo sapiens, BT-474, 72 h, 3 days, 4-parameter fit
[6] = tested on: HT-29 tumor cells; experiment: Method C: Cell Growth Inhibition Assay (CellTiter-Glo), HT-29; assay type: cell-based; details: Homo sapiens, HT-29, 72 h, 3 days, 4-parameter fit
Outline: as §2

[7] = tested on: SK-MEL-28 tumor cells; experiment: Method C: Cell Growth Inhibition Assay (CellTiter-Glo), SK-MEL-28; assay type: cell-based; details: Homo sapiens, SK-MEL-28, 72 h, 3 days, 4-parameter fit
Outline: as §2

[8] = tested on: HN5 tumor cells; experiment: Method C: Cell Growth Inhibition Assay (CellTiter-Glo), HN5; assay type: cell-based; details: Homo sapiens, 72 h, 3 days, 4-parameter fit
Outline: as §2

[9] = tested on: Colo205 tumor cells; experiment: Method C: Cell Growth Inhibition Assay (CellTiter-Glo), Colo205; assay type: cell-based; details: Homo sapiens, COLO 205, 72 h, 3 days, 4-parameter fit
Outline: as §2

T1 sequence (P04626 23-1255): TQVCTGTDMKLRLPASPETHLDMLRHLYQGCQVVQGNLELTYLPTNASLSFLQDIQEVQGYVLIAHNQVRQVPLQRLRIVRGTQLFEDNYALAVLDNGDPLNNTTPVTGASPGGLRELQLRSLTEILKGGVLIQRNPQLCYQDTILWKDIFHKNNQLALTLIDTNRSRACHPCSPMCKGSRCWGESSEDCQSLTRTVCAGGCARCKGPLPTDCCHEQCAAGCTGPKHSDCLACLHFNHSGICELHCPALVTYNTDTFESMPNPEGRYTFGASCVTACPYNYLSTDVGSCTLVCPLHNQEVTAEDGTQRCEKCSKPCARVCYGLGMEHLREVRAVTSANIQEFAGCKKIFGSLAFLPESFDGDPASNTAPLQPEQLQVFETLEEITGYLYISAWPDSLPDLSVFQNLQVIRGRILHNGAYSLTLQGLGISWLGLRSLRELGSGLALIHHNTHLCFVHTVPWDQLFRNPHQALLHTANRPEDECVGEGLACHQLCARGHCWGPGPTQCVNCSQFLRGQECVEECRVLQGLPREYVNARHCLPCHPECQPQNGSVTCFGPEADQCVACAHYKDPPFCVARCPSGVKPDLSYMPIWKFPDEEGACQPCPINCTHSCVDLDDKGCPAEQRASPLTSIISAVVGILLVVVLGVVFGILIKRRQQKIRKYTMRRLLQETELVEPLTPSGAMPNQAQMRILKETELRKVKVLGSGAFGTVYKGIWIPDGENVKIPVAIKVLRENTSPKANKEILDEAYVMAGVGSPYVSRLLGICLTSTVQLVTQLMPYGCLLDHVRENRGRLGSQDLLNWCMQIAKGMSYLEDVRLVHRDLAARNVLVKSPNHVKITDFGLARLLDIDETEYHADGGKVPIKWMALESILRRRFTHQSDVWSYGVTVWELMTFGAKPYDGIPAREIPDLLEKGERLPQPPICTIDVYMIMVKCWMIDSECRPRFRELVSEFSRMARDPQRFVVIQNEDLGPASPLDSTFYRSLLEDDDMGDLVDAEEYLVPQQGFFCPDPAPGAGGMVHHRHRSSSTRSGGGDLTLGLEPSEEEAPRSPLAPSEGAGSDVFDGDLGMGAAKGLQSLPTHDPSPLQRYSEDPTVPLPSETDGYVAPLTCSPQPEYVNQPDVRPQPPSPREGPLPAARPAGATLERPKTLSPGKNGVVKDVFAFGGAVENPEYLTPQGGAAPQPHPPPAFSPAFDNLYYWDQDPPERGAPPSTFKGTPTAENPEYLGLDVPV
T2 sequence (P00533 25-1210): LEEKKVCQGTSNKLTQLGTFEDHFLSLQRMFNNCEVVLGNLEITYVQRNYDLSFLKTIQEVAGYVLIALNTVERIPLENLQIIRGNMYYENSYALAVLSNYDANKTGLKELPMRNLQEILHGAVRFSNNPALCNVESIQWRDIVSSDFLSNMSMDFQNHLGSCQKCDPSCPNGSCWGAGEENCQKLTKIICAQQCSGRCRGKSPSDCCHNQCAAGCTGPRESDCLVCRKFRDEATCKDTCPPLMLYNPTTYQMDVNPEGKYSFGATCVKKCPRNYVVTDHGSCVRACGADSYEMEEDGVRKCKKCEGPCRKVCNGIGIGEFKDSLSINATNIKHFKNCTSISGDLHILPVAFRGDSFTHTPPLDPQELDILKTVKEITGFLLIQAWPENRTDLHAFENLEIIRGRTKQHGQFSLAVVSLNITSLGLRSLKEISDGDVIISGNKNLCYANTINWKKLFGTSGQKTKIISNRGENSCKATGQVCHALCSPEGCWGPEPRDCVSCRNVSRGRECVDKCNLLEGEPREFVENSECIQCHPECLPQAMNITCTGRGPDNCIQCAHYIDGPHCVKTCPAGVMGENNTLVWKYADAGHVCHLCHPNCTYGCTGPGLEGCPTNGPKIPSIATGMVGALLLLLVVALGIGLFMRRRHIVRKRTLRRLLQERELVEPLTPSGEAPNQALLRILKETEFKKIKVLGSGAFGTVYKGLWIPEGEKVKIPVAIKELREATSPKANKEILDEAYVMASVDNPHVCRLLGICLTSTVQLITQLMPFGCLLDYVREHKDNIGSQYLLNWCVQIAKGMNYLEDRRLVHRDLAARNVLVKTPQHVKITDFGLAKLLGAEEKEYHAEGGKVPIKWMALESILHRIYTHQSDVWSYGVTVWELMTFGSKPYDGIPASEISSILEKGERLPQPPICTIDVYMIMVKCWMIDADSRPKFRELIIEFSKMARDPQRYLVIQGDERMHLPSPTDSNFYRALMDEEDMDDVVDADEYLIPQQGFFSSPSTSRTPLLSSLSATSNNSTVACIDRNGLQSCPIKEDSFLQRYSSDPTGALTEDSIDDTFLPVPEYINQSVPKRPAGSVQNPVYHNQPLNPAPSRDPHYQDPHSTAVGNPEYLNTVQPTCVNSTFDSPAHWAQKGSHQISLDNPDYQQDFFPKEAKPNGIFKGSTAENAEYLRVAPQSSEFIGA

| IC50 [1] | IC50 [2] | IC50 [3] | IC50 [4] | IC50 [5] | IC50 [6] | IC50 [7] | IC50 [8] | IC50 [9] | Compound |
| --- | --- | --- | --- | --- | --- | --- | --- | --- | --- |
| < 100 nM | < 100 nM | > 1000 nM | > 1000 nM | > 1000 nM | 100 to 1000 nM | > 1000 nM | 100 to 1000 nM | > 1000 nM | CN(C)CCOc1ccc(Nc2nccc(-c3sc(N4CCCCC4)nc3-c3cccc(NC(=O)c4c(F)cccc4F)c3)n2)cc1Cl [Example 72, N-{3-[5-{2-[(3-Chloro-4-{[2-(dimethylamino)ethyl]oxy}phenyl)amino]-4-pyrimidinyl}-2-(1-piperidinyl)-1,3-thiazol-4-yl]phenyl}-2,6-difluorobenzamide] |
| < 100 nM | < 100 nM | 100 to 1000 nM | 100 to 1000 nM | < 100 nM | 100 to 1000 nM | > 1000 nM | 100 to 1000 nM | 100 to 1000 nM | CN(C)CCOc1ccc(Nc2nccc(-c3sc(N)nc3-c3cccc(C(=O)Nc4c(F)cccc4F)c3)n2)cc1Cl [Example 75, 3-(2-Amino-5-{2-[(3-chloro-4-{[2-(dimethylamino)ethyl]oxy}phenyl)amino]-4-pyrimidinyl}-1,3-thiazol-4-yl)-N-(2,6-difluorophenyl)benzamide] |
| < 100 nM | < 100 nM | 100 to 1000 nM | > 1000 nM | < 100 nM | 100 to 1000 nM | > 1000 nM | < 100 nM | 100 to 1000 nM | CN(C)CCOc1cccc(Nc2nccc(-c3scnc3-c3cccc(NC(=O)c4c(F)cccc4F)c3)n2)c1 [Example 79, N-[3-(5-{2-[(3-{[2-(Dimethylamino)ethyl]oxy}phenyl)amino]-4-pyrimidinyl}-1,3-thiazol-4-yl)phenyl]-2,6-difluorobenzamide-formic acid] |
| < 100 nM | < 100 nM | 100 to 1000 nM | 100 to 1000 nM | < 100 nM | 100 to 1000 nM | 100 to 1000 nM | < 100 nM | > 1000 nM | CS(=O)(=O)CCN1CCN(c2ccc(Nc3nccc(-c4scnc4-c4cccc(NC(=O)c5c(F)cccc5F)c4)n3)cc2F)CC1 [Example 80, 2,6-Difluoro-N-[3-(5-{2-[(3-fluoro-4-{4-[2-(methylsulfonyl)ethyl]-1-piperazinyl}phenyl)amino]-4-pyrimidinyl}-1,3-thiazol-4-yl)phenyl]benzamide] |
| < 100 nM | < 100 nM | > 1000 nM | > 1000 nM | > 1000 nM | > 1000 nM | > 1000 nM | > 1000 nM | > 1000 nM | CN(C)CCOc1cccc(Nc2nccc(-c3scnc3-c3cccc(NC(=O)Cc4cccs4)c3)n2)c1 [Example 84, N-[3-(5-{2-[(3-{[2-(Dimethylamino)ethyl]oxy}phenyl)amino]-4-pyrimidinyl}-1,3-thiazol-4-yl)phenyl]-2-(2-thienyl)acetamide] |
| < 100 nM | < 100 nM | 100 to 1000 nM | > 1000 nM | < 100 nM | 100 to 1000 nM | > 1000 nM | 100 to 1000 nM | 100 to 1000 nM | CN(C)Cc1cccc(Nc2nccc(-c3scnc3-c3cccc(NC(=O)c4c(F)cccc4F)c3)n2)c1 [Example 90, N-(3-{5-[2-({3-[(Dimethylamino)methyl]-phenyl}amino)-4-pyrimidinyl]-1,3-thiazol-4-yl}phenyl)-2,6-difluorobenzamide-formic acid] |
| < 100 nM | < 100 nM | 100 to 1000 nM | 100 to 1000 nM | < 100 nM | 100 to 1000 nM | 100 to 1000 nM | < 100 nM | 100 to 1000 nM | COc1ccc(Nc2nccc(-c3scnc3-c3cccc(NC(=O)c4c(F)cccc4F)c3)n2)cc1N1CCN(C)CC1 [Example 93, 2,6-Difluoro-N-{3-[5-(2-{[4-(methyloxy)-3-(4-methyl-1-piperazinyl)phenyl]amino}-4-pyrimidinyl)-1,3-thiazol-4-yl]phenyl}benzamide] |
| < 100 nM | < 100 nM | > 1000 nM | 100 to 1000 nM | < 100 nM | 100 to 1000 nM | > 1000 nM | < 100 nM | 100 to 1000 nM | O=C(Nc1cccc(-c2ncsc2-c2ccnc(Nc3cccc(CN4CCCC4)c3)n2)c1)c1c(F)cccc1F [Example 94, 2,6-Difluoro-N-{3-[5-(2-{[3-(1-pyrrolidinylmethyl)phenyl]amino}-4-pyrimidinyl)-1,3-thiazol-4-yl]phenyl}benzamide] |
| < 100 nM | < 100 nM | 100 to 1000 nM | > 1000 nM | < 100 nM | 100 to 1000 nM | > 1000 nM | < 100 nM | > 1000 nM | NS(=O)(=O)CCc1cccc(Nc2nccc(-c3scnc3-c3cccc(NC(=O)c4c(F)cccc4F)c3)n2)c1 [Example 95, N-(3-{5-[2-({3-[2-(Aminosulfonyl)ethyl]phenyl}amino)-4-pyrimidinyl]-1,3-thiazol-4-yl}phenyl)-2,6-difluorobenzamide] |
| < 100 nM | < 100 nM | 100 to 1000 nM | 100 to 1000 nM | < 100 nM | 100 to 1000 nM | > 1000 nM | 100 to 1000 nM | 100 to 1000 nM | Cc1nc(-c2cccc(NC(=O)c3c(F)cccc3F)c2)c(-c2ccnc(Nc3cccc(CN4CCCC4)c3)n2)s1 [Example 104, 2,6-Difluoro-N-{3-[2-methyl-5-(2-{[3-(1-pyrrolidinylmethyl)phenyl]amino}-4-pyrimidinyl)-1,3-thiazol-4-yl]phenyl}benzamide] |
| < 100 nM | < 100 nM | 100 to 1000 nM | > 1000 nM | < 100 nM | 100 to 1000 nM | > 1000 nM | < 100 nM | 100 to 1000 nM | Cc1nc(-c2cccc(NC(=O)c3c(F)cccc3F)c2)c(-c2ccnc(Nc3ccc(OCCN(C)C)c(F)c3)n2)s1 [Example 105, N-[3-(5-{2-[(4-{[2-(Dimethylamino)ethyl]oxy}-3-fluorophenyl)amino]-4-pyrimidinyl}-2-methyl-1,3-thiazol-4-yl)phenyl]-2,6-difluorobenzamide] |
| < 100 nM | < 100 nM | 100 to 1000 nM | 100 to 1000 nM | < 100 nM | 100 to 1000 nM | 100 to 1000 nM | < 100 nM | 100 to 1000 nM | Cc1nc(-c2cccc(NC(=O)c3c(F)cccc3F)c2)c(-c2ccnc(Nc3ccc(OC4CCNCC4)c(F)c3)n2)s1 [Example 107, 2,6-DUDuoro-N-{3-[5-(2-{[3-fluoro-4-(4-piperidinyloxy)phenyl]amino}-4-pyrimidinyl)-2-methyl-1,3-thiazol-4-yl]phenyl}benzamide] |
| < 100 nM | < 100 nM | 100 to 1000 nM | > 1000 nM | < 100 nM | 100 to 1000 nM | > 1000 nM | 100 to 1000 nM | 100 to 1000 nM | Cc1nc(-c2cccc(NC(=O)c3c(F)cccc3F)c2)c(-c2ccnc(Nc3ccc(OC4CCN(C)CC4)c(F)c3)n2)s1 [Example 108, 2,6-Difluoro-N-(3-{5-[2-({3-fluoro-4-[(1-methyl-4-piperidinyl)oxy]phenyl}amino)-4-pyrimidinyl]-2-methyl-1,3-thiazol-4-yl}phenyl)benzamide] |
| < 100 nM | < 100 nM | > 1000 nM | > 1000 nM | 100 to 1000 nM | > 1000 nM | > 1000 nM | 100 to 1000 nM | > 1000 nM | CC(=O)N1CCC(Oc2ccc(Nc3nccc(-c4sc(C)nc4-c4cccc(NC(=O)c5c(F)cccc5F)c4)n3)cc2F)CC1 [Example 109, N-(3-{5-[2-({4-[(1-Acetyl-4-piperidinyl)oxy]-3-fluorophenyl}amino)-4-pyrimidinyl]-2-methyl-1,3-thiazol-4-yl}phenyl)-2,6-difluorobenzamide] |
| < 100 nM | < 100 nM | 100 to 1000 nM | 100 to 1000 nM | < 100 nM | 100 to 1000 nM | 100 to 1000 nM | 100 to 1000 nM | 100 to 1000 nM | Cc1nc(-c2cccc(NC(=O)c3c(F)cccc3F)c2)c(-c2ccnc(Nc3ccc(OC4CCN(C(C)C)CC4)c(F)c3)n2)s1 [Example 111, 2,6-Difluoro-N-[3-(5-{2-[(3-fluoro-4-{[1-(1-methylethyl)-4-piperidinyl]oxy}phenyl)amino]-4-pyrimidinyl}-2-methyl-1,3-thiazol-4-yl)phenyl]benzamide] |
| < 100 nM | < 100 nM | 100 to 1000 nM | > 1000 nM | < 100 nM | 100 to 1000 nM | > 1000 nM | 100 to 1000 nM | 100 to 1000 nM | CCc1nc(-c2cccc(NC(=O)c3c(F)cccc3F)c2)c(-c2ccnc(Nc3ccc(OCCN(C)C)c(F)c3)n2)s1 [Example 112, N-[3-(5-{2-[(4-{[2-(Dimethylamino)ethyl]oxy}-3-fluorophenyl)amino]-4-pyrimidinyl}-2-ethyl-1,3-thiazol-4-yl)phenyl]-2,6-difluorobenzamide] |
